Test results reported in patent US12186304B2, “Method for treating cancer by combination of IAP inhibitor and modulator of immune checkpoint molecule” (ASCENTAGE PHARMA (SUZHOU) CO., LTD., priority 2018, dated 2025).

Tests used:
[1] = system: murine A20 lymphoma cells; assay: Subcutaneous xenograft model of murine A20 lymphoma; assay type: in vivo, female BALB/c mice; settings: A20 s.c.
Method: • (1) APG-1387: provided by Jiangsu Ascentage Pharmaceutical Development Co., Ltd. The batch number is R12JA076140-A2 and PAPG-1387-DP-201305A. Preserved at 4° C., away from the light and sealed. APG-1387 was administered intravenously (i.v.) or intraperitoneally (i.p.) or at a dosage of 10 mL/kg. APG-1387 was dissolved in 5% castor oil/10% PEG400/85% normal saline. • (2) Anti-PD-1 antibody: purchased from BioXcell. The article number is BE0146 and BE0273. Preserved at 4° C. and sealed. The anti-PD-1 antibody was administered intraperitoneally at a concentration of 100 μg per mice or 200 μg per mice. • (3) Isotype control (anti-IgG): purchased from BioXcell, the product number is BE0089. Preserved at 4° C. and sealed. […]
The mice were injected subcutaneously with 0.5-10×10^6 cells or in the ovary with 6×10^6 cells in situ to build the tumor xenograft model. […] For the orthotopic model, tumor growth was measured by examining in vivo fluorescence images 10 days after inoculation. […] Body weight and tumor size were measured twice per week during the experiment. […]
The calculation of tumor related parameters is the same as set forth in Example 1. Using the fluorescence imaging technique, the strength of the fluorescent signal can represent the growth and metastasis of tumors in vivo. […]

[2] = system: CT26 colorectal cancer; assay: Combination therapy in CT26 mouse colorectal cancer model; assay type: in vivo; settings: for T/C (%) value on day 18 after administration: APG-1387 0.2 mg/kg i.v. once daily, docetaxel 8 mg/kg i.p. once weekly, anti-PD-1 200 μg/mouse i.p. twice weekly
Method: Cell inoculation method was used to establish a […] tumor-immunized normal mouse subcutaneous homograft tumor model: tumor cells in logarithmic growth phase were collected, counted, and then resuspended in 1×PBS. The concentration of the cell suspension was adjusted to 2.5-5×10^7/mL. Tumor cells, 5-10×10^6/0.2 mL/mouse, were inoculated subcutaneously in the right back of the immunized normal mouse with a 1 mL syringe ([…]). All animal experimental operations were strictly in accordance with standards for use and management of laboratory animals by Gima Gene Co., Ltd and Suzhou Yasheng Pharmaceutical Co., Ltd. Relevant parameters were calculated with reference to China's NMPA “Guidelines for Non-clinical Research Techniques of Cytotoxic Antitumor Drugs”.
Animal weight and tumor size were measured twice a week during the experiment. Animals were observed daily for status and the occurrence of death. Routine monitoring included the effects of tumor growth and treatment on the normal behaviors of animals, specifically including the activity, feeding and drinking, weight gain or loss, eyes, clothing hair, as well as other abnormalities of the laboratory animals. The deaths and clinical symptoms observed during the experiment were recorded in the original data. The whole process of administration, measurement of mouse weight and tumor volume was carried out in an ultra-clean bench. According to requirements of the experimental program, plasma and tumor tissue were collected, weighed and photographed for record after the end of last administration. Plasma and tumor samples were frozen at −80° C. for later use.
Tumor volume (TV) was calculated as TV=a×b^2/2, wherein a and b represented the length and width of tumor measurement, respectively.
Relative tumor volume (RTV) was calculated as RTV=Vt/V1, wherein V1 was the tumor volume at the time of grouping administration, and Vt was the tumor volume measured on day t after administration.
The evaluation index of anti-tumor activity was relative tumor proliferation rate T/C (%), and was calculated as: relative tumor proliferation rate T/C (%)=(TRTV/CRTV)×100%, wherein TRTV was RTV in treatment group, and CRTV was RTV in vehicle control group.
Tumor remission rate (%) was the number of SD (stable disease), PR (partial regression) and CR (complete regression) in tumor-bearing mice after treatment divided by the total number of mice in that group×100%. CR refers to the complete regression of the tumor, which means the tumor is inaccessible after treatment. PR refers to the partial regression of the tumor, which means tumor volume becomes smaller than before treatment. SD refers to stable tumor progression, which means tumor volume is the same as before treatment. Change of body weight (%)=(measurement of body weight−body weight when grouping)/body weight when grouping×100%.
Efficacy evaluation criteria: according to China's NMPA “Guidelines for Non-clinical Research Techniques of Cytotoxic Antitumor Drugs” (November 2006), T/C (%) value 40% and p<0.05 by statistical analysis were considered as efficacious. If the weight loss of mice exceeded 20%, or the drug-related death percentage exceeded 20%, the drug dose was considered to be severely toxic.
According to Clarke R., Issues in experimental design and endpoint analysis in the study of experimental cytotoxic agents in vivo in breast cancer and other models [J].
A tumor model of CT26 colorectal cancer mouse was established, and the combined anti-tumor effect of APG-1387 with anti-PD-1 antibody and docetaxel was evaluated on this model. The administration regimen was as follows:
APG-1387 monotherapy group: 0.2 mg/kg, intravenous injection, once daily for a total of 17 days;
Docetaxel monotherapy group: 8 mg/kg, intraperitoneal injection, once weekly for a total of 17 days;
Anti-PD-1 antibody monotherapy group: 200 μg/mouse, intraperitoneal injection, twice weekly for a total of 2.5 weeks (i.e., 17 days); […]

CC(=O)O[C@@]12CO[C@@H]1C[C@H](O)[C@@]1(C)C(=O)[C@H](O)C3=C(C)[C@@H](OC(=O)[C@H](O)[C@@H](NC(=O)OC(C)(C)C)c4ccccc4)C[C@@](O)([C@@H](OC(=O)c4ccccc4)[C@H]21)C3(C)C [Docetaxel, docetaxel]
anti-tumor effect on the 24th day after administration [1]: not significant
T/C (%) value on day 18 after administration [2]: 66%
T/C (%) value on day 18 after administration ([2]; listed as docetaxel): 66%
Tumor remission rate on day 18 after administration (%) ([2]; day 18): 25%
Tumor remission rate on day 18 after administration: animals with SD/PR/CR per animals in group ([2]; day 18): 1/4 SD
Tumor remission rate on day 18 after administration: animals with SD/PR/CR per animals in group ([2]; day 18, listed as docetaxel): ¼
